Measured values taken from US20030181333A1, “Herbicide combinations comprising specific sulfonylureas” (Bayer CropScience GmbH, priority 2002, published 2003).

Key:
Format in all cases: in vivo
Conditions in all cases: applied at 3-5 leaf stage, scored visually approx. 4-6 weeks after application, means of 2-3 repetitions, g of AS/ha: (A1 + B2)^S 12.5 + 6.25; Azur 800 + 40 + 200; B2 5; E) 60
Galium aparine = assay: Outdoor trial: herbicidal action, visual score
Protocol: (§1) Herbicidal action and compatibility in outdoor trials
(§2) The plants were sown and cultivated (fertilization, irrigation, etc.) as customary in practice on trial fields with naturally occurring weeds.
(§3) The experiments were designed as random tests of 2 plots of 5-10 m^2, with 2-3 repetitions. Application was carried out using plot sprayers at the 3-5 leaf stage. The test substances were made up in 100-600 liters of water/ha and applied with a pressure of 3 bar.
(§4) After the treatment (approx. 4-6 weeks after application), the herbidical activity of the active compounds or active compound mixtures was scored visually by comparing the treated plants with the untreated controls. The damage and development of all above-ground parts of the plants was recorded. Scoring was done on a percentage scale (100% action=all plants dead; 50% action=50% of the plants and green plant parts dead; 0% action=no discernible action or damage to crop species.
(§5) In the tables below, the results are given as the means of 2-3 repetitions, and the activity achieved when active compounds (A+B) and C) were applied independently is stated in brackets.

Avena fatua = assay: Outdoor trial: herbicidal action, visual score
Protocol: as §1, §2, §3, §4, §5

Winter wheat = assay: Outdoor trial: compatibility, % damage to crop
Protocol: as §1, §2, §3, §4, §5

SMILES | % Activity Galium aparine (Galium aparine) | % Activity Avena fatua (Avena fatua) | Winter wheat % Damage (Winter wheat)
CCOC(=O)[C@@H](C)Oc1ccc(Oc2nc3ccc(Cl)cc3o2)cc1 [E), fenoxaprop-(P)-ethyl] | 0) % | 70) % | 
COC(=O)c1ccc(I)cc1S(=O)(=O)[N-]C(=O)Nc1nc(C)nc(OC)n1.[Na+] [B2, iodosulfuron-methyl-sodium] | 25% | 68% | 0%
